Assay [1] deals with T1, Lam4p (Saccharomyces cerevisiae, UniProt P38800).
T1 construct: gene LAM4
The assay can be described thus: biochemical.

Assay [2] has as its target T2, Ysp2p (Saccharomyces cerevisiae, UniProt Q06681).
T2 construct: gene YSP2; StART-like domains Ysp2S1 (829-1027) and Ysp2S2 (1027-1244), His-tagged, each measured
The assay can be described thus: tryptophan-DHE FRET with purified domain. In kind it is binding.

Assay [3] addresses T2, Ysp2p. The assay can be described thus: competition of tryptophan-DHE FRET with purified domain. In kind it is binding.
The target of assay [4] is T1, Lam4p. Kind of assay: co-purification of […]-labelled cholesterol from HL60 cells (TLC); competition of DHE FRET. It counts as binding.

The structures appear in SMILES notation.

Usually Kd stands for a measure of binding affinity in units of concentration. A higher Kd goes with lower affinity.

T2 sequence (Q06681 829-1244): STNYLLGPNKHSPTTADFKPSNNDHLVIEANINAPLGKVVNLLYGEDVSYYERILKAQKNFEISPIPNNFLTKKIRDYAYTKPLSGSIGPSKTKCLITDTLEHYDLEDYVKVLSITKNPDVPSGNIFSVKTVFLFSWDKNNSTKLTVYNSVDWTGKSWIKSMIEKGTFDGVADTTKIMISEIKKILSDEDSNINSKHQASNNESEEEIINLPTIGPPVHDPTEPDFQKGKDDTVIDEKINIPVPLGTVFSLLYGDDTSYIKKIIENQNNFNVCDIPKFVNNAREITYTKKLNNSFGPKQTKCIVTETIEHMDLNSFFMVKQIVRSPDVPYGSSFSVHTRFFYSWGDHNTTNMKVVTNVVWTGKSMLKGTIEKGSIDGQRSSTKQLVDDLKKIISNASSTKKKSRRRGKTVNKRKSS
T1 sequence (P38800 946-1155): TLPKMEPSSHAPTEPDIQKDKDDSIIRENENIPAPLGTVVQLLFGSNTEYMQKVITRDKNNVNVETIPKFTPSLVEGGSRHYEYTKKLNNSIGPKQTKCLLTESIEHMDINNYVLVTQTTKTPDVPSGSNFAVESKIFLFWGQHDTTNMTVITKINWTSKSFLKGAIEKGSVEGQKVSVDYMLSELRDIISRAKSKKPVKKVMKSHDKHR

`CC(C)[C@@H](C)/C=C/[C@@H](C)[C@H]1CC[C@H]2C3=CC=C4C[C@@H](O)CC[C@]4(C)C3=CC[C@]12C` [DHE, dehydroergosterol] registered a Kd on Lam4p [1] of 500 nM. Also, at Ysp2p [2], the “tryptophan-DHE FRET with purified domain” value was “these proteins all produced strong FRET signals with DHE”.
Regarding `CC(C)CCC[C@@H](C)[C@H]1CC[C@H]2[C@@H]3CC=C4C[C@@H](O)CC[C@]4(C)[C@H]3CC[C@]12C` [chol, cholesterol], the “competition of tryptophan-DHE FRET with purified domain” value on Ysp2p [3] is “All four purified StART-like domains bound both cholesterol (the predominant sterol in mammals) and ergosterol”. Moreover, on Lam4p [4], the “co-purification of 14C-labelled cholesterol from HL60 cells (TLC); competition o” value was “Lam4S2 extracted cholesterol but no other lipids from labelled HL60 cells”.
`CC(C)[C@@H](C)/C=C/[C@@H](C)[C@H]1CC[C@H]2C3=CC=C4C[C@@H](O)CC[C@]4(C)[C@H]3CC[C@]12C` [erg, ergosterol]: the “competition of tryptophan-DHE FRET with purified domain” value on Ysp2p [3] is “All four purified StART-like domains bound both cholesterol (the predominant sterol in mammals) and ergosterol”.
